Reference: the NIST ThermoML archive (doi:10.1016/j.fluid.2014.07.002)

Assay: mean ionic activity coefficient (dimensionless); mn = molality of the nth substance listed, in mol/kg
Conditions: 298.2 K, 101 kPa, Liquid, potentionmetric method

[Cl-].[Na+] [sodium chloride] + O
Conditions | mean ionic activity coefficient
m1 = 0.001 | 0.965
m1 = 0.0101 | 0.902
m1 = 0.0502 | 0.82
m1 = 0.0993 | 0.777
m1 = 0.2495 | 0.718
m1 = 0.4993 | 0.68
m1 = 0.7496 | 0.663
m1 = 0.9996 | 0.655
m1 = 1.249 | 0.654
m1 = 1.5 | 0.656
m1 = 1.749 | 0.66
m1 = 1.999 | 0.667
m1 = 2.499 | 0.687
m1 = 3 | 0.713
